Measurements taken from ChEMBL document CHEMBL5370549, “Optimization and evaluation of pyridinyl vinyl sulfones as Nrf2 activator for the antioxidant and anti-inflammatory effects” (Eur J Med Chem, 2023).
pEC50: −log10 of the molar value. Calls of active or inactive are those of the source.

Tests used:
Mus musculus [1] = assay: (§1) Antiinflammatory activity against LPS-induced neuroinflammation C57BL/6N mouse model assessed as reduction of glial cell reactivity by measuring reduction in GFAP expression in dentate gyrus at 20 mg/kg/day, po administered for 3 days followed by LPS administration for 7 days by immunofluorescence staining based analysis; type: functional, organism-based; conditions: time 10.0 day
BV-2 [2] = assay: Antiinflammatory activity against LPS-induced mouse BV-2 cells assessed as inhibition of IL-6 production at 0.1 to 3 uM pretreated for 6 hrs followed by LPS stimulation for 24 hrs by ELISA; type: functional, cell-based; conditions: dose 0.1-3 µM, time 30.0 hrs
Mus musculus [3] = assay: as §1, with “cortex” for “dentate gyrus”; type: functional, organism-based; conditions: time 10.0 day
[4] = Metabolic stability of the compound in human liver microsomes assessed as parent compound remaining measured after 30 mins; type: ADME, Microsome; conditions: read-out: Stability
[5] = target: T1, Nuclear factor erythroid 2-related factor 2 (Mus musculus) (UniProt Q60795); assay: Activation of Nrf2 in mouse BV-2 cells assessed as increase in HO-1 protein expression at 3 uM measured after 9 hrs by immunoblot analysis; type: cell-based; conditions: filed as activator
T1 sequence (whole entry): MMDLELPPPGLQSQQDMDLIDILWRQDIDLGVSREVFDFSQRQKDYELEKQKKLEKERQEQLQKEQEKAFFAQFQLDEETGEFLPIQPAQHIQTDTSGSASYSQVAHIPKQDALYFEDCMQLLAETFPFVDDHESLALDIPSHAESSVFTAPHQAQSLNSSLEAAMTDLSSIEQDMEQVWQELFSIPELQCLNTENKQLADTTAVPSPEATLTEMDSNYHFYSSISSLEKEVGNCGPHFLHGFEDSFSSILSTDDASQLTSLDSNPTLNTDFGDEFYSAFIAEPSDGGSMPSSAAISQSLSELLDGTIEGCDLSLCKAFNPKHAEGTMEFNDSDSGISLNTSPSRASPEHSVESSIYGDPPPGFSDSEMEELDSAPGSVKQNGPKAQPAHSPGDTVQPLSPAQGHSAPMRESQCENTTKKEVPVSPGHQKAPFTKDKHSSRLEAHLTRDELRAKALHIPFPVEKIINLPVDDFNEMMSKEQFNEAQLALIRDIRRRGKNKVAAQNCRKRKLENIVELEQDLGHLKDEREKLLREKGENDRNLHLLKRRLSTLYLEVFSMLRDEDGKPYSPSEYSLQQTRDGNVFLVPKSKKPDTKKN

Mus musculus [6] = assay: Cognitive enhancing activity against LPS-induced neuroinflammation C57BL/6N mouse model assessed as […] memory improvement by measuring delayed step-through latency at 20 mg/kg/day, po administered for 3 days followed by LPS administration for 7 days by passive avoidance test; type: functional, organism-based; conditions: time 10.0 day
[7] = target: T1, Nuclear factor erythroid 2-related factor 2 (Mus musculus); assay: Activation of Nrf2 in mouse BV-2 cells assessed as increase in GCLM protein expression measured after 12 hrs by immunoblot analysis; type: cell-based; conditions: filed as activator, dose 0.01-3 µM
BV-2 [8] = assay: Cytotoxicity against mouse BV-2 cells assessed as effect on cell viability upto 3 uM incubated for 24 hrs by WST assay; type: toxicity, cell-based; conditions: bv-2, 24 h
[9] = target: T2, Nuclear factor erythroid 2-related factor 2 (Homo sapiens, UniProt Q16236); assay: Activation of Nrf2 in human U2OS cells co-expressing Keap1 assessed as induction of Nrf2 nuclear translocation incubated for 6 hrs by PathHunter chemiluminescence based analysis; type: cell-based
T2 sequence (Q16236 whole entry): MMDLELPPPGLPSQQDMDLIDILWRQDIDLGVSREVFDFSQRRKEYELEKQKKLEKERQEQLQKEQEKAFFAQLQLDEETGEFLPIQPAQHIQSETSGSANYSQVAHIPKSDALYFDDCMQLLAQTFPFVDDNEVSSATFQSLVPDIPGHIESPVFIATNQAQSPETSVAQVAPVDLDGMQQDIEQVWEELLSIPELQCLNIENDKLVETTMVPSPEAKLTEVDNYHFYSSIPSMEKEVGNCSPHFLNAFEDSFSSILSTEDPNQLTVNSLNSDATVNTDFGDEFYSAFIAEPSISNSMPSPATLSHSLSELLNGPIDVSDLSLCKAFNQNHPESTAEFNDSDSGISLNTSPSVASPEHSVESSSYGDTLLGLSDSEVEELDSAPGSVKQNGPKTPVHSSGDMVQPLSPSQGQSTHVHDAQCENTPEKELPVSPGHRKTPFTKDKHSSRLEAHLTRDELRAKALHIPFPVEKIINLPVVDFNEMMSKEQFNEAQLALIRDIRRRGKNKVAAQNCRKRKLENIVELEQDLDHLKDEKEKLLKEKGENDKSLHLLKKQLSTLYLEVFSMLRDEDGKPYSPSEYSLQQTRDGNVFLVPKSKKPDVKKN

[10] = target: T1, Nuclear factor erythroid 2-related factor 2 (Mus musculus); assay: Activation of Nrf2 in mouse BV-2 cells assessed as increase in GCLM protein expression at 3 uM measured after 48 hrs by immunoblot analysis; type: cell-based; conditions: filed as activator
Mus musculus [11] = assay: as §1, with “IBA1” for “GFAP”, “hippocampus CA1 region” for “dentate gyrus”; type: functional, organism-based; conditions: time 10.0 day
BV-2 [12] = assay: Antiinflammatory activity against LPS-induced mouse BV-2 cells assessed as inhibition of IL-6 mRNA expression at 0.03 to 3 uM pretreated for 6 hrs followed by LPS stimulation for 6 hrs by qRT-PCR analysis; type: functional, cell-based; conditions: dose 0.03-3 µM, time 12.0 hrs
BV-2 [13] = assay: Antiinflammatory activity against LPS-induced mouse BV-2 cells assessed as inhibition of IL-1 beta mRNA expression at 0.1 to 3 uM pretreated for 6 hrs followed by LPS stimulation for 6 hrs by qRT-PCR analysis; type: functional, cell-based; conditions: dose 0.1-3 µM, time 12.0 hrs
[14] = target: T1, Nuclear factor erythroid 2-related factor 2 (Mus musculus); assay: Activation of Nrf2 in mouse BV-2 cells assessed as increase in Nrf2 level in whole cell lysates measured after 3 hrs by immunoblot analysis; type: subcellular; conditions: filed as activator, dose 0.01-3 µM
CYP1A2 = target: T3, CYP1A2 (Homo sapiens, UniProt P05177); assay: Inhibition of CYP1A2 (unknown origin) assessed as enzyme activity at 10 uM relative to control; type: ADME; design: scale not given: the % may be the effect or the level left; conditions: read-out: Activity
T3 sequence (P05177 whole entry): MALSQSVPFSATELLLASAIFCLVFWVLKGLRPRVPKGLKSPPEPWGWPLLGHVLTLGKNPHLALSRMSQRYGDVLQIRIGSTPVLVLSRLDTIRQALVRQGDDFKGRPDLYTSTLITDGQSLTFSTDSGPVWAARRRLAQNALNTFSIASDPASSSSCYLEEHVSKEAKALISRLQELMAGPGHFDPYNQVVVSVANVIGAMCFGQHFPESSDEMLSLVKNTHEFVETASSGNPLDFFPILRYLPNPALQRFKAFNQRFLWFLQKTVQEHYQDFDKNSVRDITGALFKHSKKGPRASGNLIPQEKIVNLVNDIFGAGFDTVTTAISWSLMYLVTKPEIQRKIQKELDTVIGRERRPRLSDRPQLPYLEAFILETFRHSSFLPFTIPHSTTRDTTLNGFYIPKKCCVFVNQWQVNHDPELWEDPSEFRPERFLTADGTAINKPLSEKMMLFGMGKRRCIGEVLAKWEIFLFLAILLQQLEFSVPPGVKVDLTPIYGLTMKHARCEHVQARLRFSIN

COc1cccnc1S(=O)(=O)/C=C/c1ncccc1Cl
active: Activity (Mus musculus [1]) | Activity (BV-2 [2]) | Activity (Mus musculus [3]) | Activity [5] | Activity (Mus musculus [6]) | Activity [7] Dose-Dependent Effect | Activity [10] | Activity (Mus musculus [11]) | Activity (BV-2 [12]) | Activity (BV-2 [13]) | Activity [14] Dose-Dependent Effect
84.9%: activity at 10 µM (CYP1A2)
Non-Toxic: Activity (BV-2 [8])
94.1%: remaining at 0.5 h [4]
7.43: pEC50 [9]
